Results taken from patent US20230414699A1, “TREATMENT OF DERMATOLOGICAL CONDITIONS” (MC2 Therapeutics Ltd, priority 2020, published 2023).
Structures can show the parent of a compound that is named as a salt. Peptide text beside a SMILES is read from it.

Each compound was assayed on Bovine Serum Albumin (BSA) (assay: In vitro protein carbamylation assay (14C-potassium cyanate, BSA)). Details: 10 mM nucleophile, 75 μM BSA, 25 μM 14C-potassium cyanate, 37° C., 72 hours, n=3.
Format: biochemical
Method: 200 μL of a 0.5% BSA solution, 200 μL of test solution and 100 μL of a 5 μCi/mL ^14C-Potassium Cyanate solution was mixed in an Eppendorf tube (corresponding to a final concentration of 75 μM BSA, 25 μM ^14C-Potassium Cyanate, and 10 mM nucleophile). Samples run in triplicates (n=3). The Eppendorf tubes were incubated at 37° C. for 72 hours (if not otherwise stated).
After incubation a volume of 100 μL of each sample was transferred to a new Eppendorf tube containing 100 μL of a 10% trichloroacetic acid (TCA) and kept at 4° C. overnight (for precipitation of BSA). Subsequently, the precipitated BSA was separated from the buffer by centrifugation (10000 rpm, 30 seconds). The supernatant was removed and the BSA pellet was resuspended in 200 μL of a 10% solution of cold TCA (4° C.). The pellet was recovered by centrifugation (10000 rpm, 30 seconds) and supernatant was discarded. The BSA pellet was resuspended in 100 μL purified water (MilliQ) and transferred to a scintillation vial. The Eppendorf tube (previously containing the BSA pellet) was rinsed with an additional 100 μL purified water which al was transferred to the relevant scintillation vial.

Compound | Degree of carbamylation (% relative to HBSS control) [%]
CC(=O)N[C@@H](CS)C(=O)O [Acetylcysteine, reference compound] | 14.3
Cl.N=C(N)NCCC[C@H](N)C(=O)O [Arg*HCl] | 66.1
COC(=O)[C@H](Cc1ccccc1)NC(=O)[C@@H](N)CC(=O)O [Aspartame] (HELM PEPTIDE1{D.F.[CO[*:1]]}$$$$V2.0) | 30.4
CC(C)C[C@H](NC(=O)[C@@H](O)[C@H](N)Cc1ccccc1)C(=O)O [Bestatin, reference compound] | 53.4
CC1=NCC[C@@H](C(=O)O)N1 [Ectoine, reference compound] | 97.9
N[C@@H](Cc1c[nH]cn1)C(=O)O [Histidine] | 61.1
NCCNCC(=O)O [N-β-aminoethyl-Gly] | 29.7
Ala-Gln | 34.8
Ala-Glu | 20.4
Arg | 52.4
Gly-Gly | 26.6
Gly-His | 22.6
Gly-Ser | 33.1
Ile-Pro | 41.4
Lys-Pro | 28.6
Pro-Ser | 41.9
Ser-Pro | 26.4
Tetraglycine | 24.9
Tyr-Ala | 26.1
Tyr-Pro | 32.8
Val-Pro | 22.1
Val-Tyr | 28.9

Same assay, conditions: 10 mM nucleophile, 37° C., 72 hours; dissolved in HBSS:DMSO 90:10; neutralized by equimolar NaOH before use

Compound | Degree of carbamylation (% relative to HBSS control) [%]
CN(C)C(=N)NC(=N)N.Cl [Metformin*HCl, reference compound] | 71.4
CC(N)C12CC3CC(CC(C3)C1)C2.Cl (stereo not drawn) [Rimantadine*HCl, reference compound] | 78.5

Same assay, conditions: 10 mM nucleophile, 37° C., 72 hours; neutralized by equimolar NaOH before use

Compound | Degree of carbamylation (% relative to HBSS control) [%]
N=C(N)c1ccc(OCCCCCOc2ccc(C(=N)N)cc2)cc1 [Pentamidine diisethionate, reference compound] | 43.1
NNCCc1ccccc1 [Phenelzine sulfate, reference compound] | 9.8
Sitagliptine phosphate [reference compound] | 48.6

Same assay, conditions: text statement referring to Example 3

Compound | degree of carbamylation (%) relative to HBSS control, in words
CC1=NCC[C@@H](C(=O)O)N1 [Ectoine, reference compound] | high degree of carbamylation

The compounds below were run on reconstructed human skin (Epiderm Full Thickness) (assay: In vitro protein carbamylation assay using reconstructed human skin (Protein Carbamylation Sandwich ELISA)). Details: 0.5 M urea:isocyanate 99:1 + 200 μL 2% nucleophile solution, apical, six days.
Format: cell-based
Method: Epiderm Full Thickness (Epiderm FT, MatTek Corp., USA) tissues were transferred to B6 trays containing EpiDermTM Full Thickness Maintenance Medium (MatTek Corp., USA) immediately upon arrival and incubated for 24 hours at 37° C. and 5% CO2. […] At day 6, the treatment solutions and the maintenance medium were removed from the tissues, and pre-warmed phosphate buffered saline (DPBS, Sigma-Aldrich) was added and removed twice before the tissues were submitted for ELISA and histological analysis. The 7 different conditions were tested on four different tissues where one tissue from each treatment was submitted for ELISA and the remaining three tissues were submitted for histological analysis. Overview of Treatment Solutions Added to the Apical Compartment • 1. […] The concentration used was selected to resemble the approximate concentration of urea in urine (Liu et. al. 2012). Experimental procedure for protein extraction was modified from Ross-Hansen et al., 2014 and Palosuo et al., 1998. The cell covered […] filters (Mattek) were cut from the plastic insertion ring, and the cell layer gently peeled of the membrane with a scalpel. […] Samples were analysed undiluted in a Protein Carbamylation Sandwich ELISA (Cell Biolabs Inc cat no STA-877).

Compound | inhibition of protein carbamylation (ELISA, FIG. 2)
N[C@@H](CC(=O)N1CCn2c(nnc2C(F)(F)F)C1)Cc1cc(F)c(F)cc1F [Sitagliptin] | did not show complete inhibition

What follows are compounds tested on reconstructed human skin (EpiDermFT) (assay: Histological analysis (H&E) of reconstructed human skin samples treated with urea:isocyanate). Details: 0.5 M urea:isocyanate 99:1 + 200 μL 2% nucleophile solution, six days; vs control treated with only urea:isocyanate.
Format: cell-based
Method: Epiderm Full Thickness (Epiderm FT, MatTek Corp., USA) tissues were transferred to B6 trays containing EpiDerm™ Full Thickness Maintenance Medium (MatTek Corp., USA) immediately upon arrival and incubated for 24 hours at 37° C. and 5% CO2. […] At day 6, the treatment solutions and the maintenance medium were removed from the tissues, and pre-warmed phosphate buffered saline (DPBS, Sigma-Aldrich) was added and removed twice before the tissues were submitted for ELISA and histological analysis. The 7 different conditions were tested on four different tissues where one tissue from each treatment was submitted for ELISA and the remaining three tissues were submitted for histological analysis. Overview of Treatment Solutions Added to the Apical Compartment • 1. […] EpiDermFT membranes were app. 1 cm in diameter and were fixed in formalin for 5 days. Membranes were cut into halves using a scissors and placed into histogel matrix aiming at having the cut surface as the tissue sectioning surface. The samples were dehydrated in alcohol and xylene and embedded in paraffin using a standard paraffin embedding procedure. Sections were cut at 4 μm for Hematoxylin and Eosin (H&E) staining and immunohistochemistry (IHC). Images were acquired using a 20× objective with a Zeiss AxioScan. Representative areas were selected for presentation. […]

Compound | attachment of epidermis / reduction of skin damage (H&E, FIG. 3)
N[C@@H](CC(=O)N1CCn2c(nnc2C(F)(F)F)C1)Cc1cc(F)c(F)cc1F [Sitagliptin] | least effect
